Test results published in ChEMBL document CHEMBL2407021, “Unveiling the mode of action of antibacterial labdane diterpenes from Alpinia nigra (Gaertn.) B. L. Burtt seeds” (2013).
Values after ≈ are worked out from the molar mass of the structure shown. Active and inactive are the calls of the source. The rule behind the calls is not given here.

Columns and labels:
[1] = test system: Staphylococcus aureus; assay: Induction of cell leakage in Staphylococcus aureus ATCC 6538 assessed as release of cellular materials at MIC after 8 to 16 hrs by UV/VIS spectrophotometer analysis; assay type: functional, organism-based
[2] = test system: Yersinia enterocolitica; assay: Induction of cell lysis in Yersinia enterocolitica MTCC 859 assessed as cell membrane damage at MIC by field emission scanning electron microscopy analysis; assay type: functional, organism-based
[3] = test system: Bacillus cereus; assay: Antibacterial activity against Bacillus cereus ATCC 11778 after 18 hrs by microdilution method; assay type: functional; details: ATCC 11778, 18 h
[4] = test system: Escherichia coli; assay: Induction of cell damage in Escherichia coli ATCC 25922 assessed as increase in fluorescence intensity at MIC after 12 hrs using propidium iodide staining by flow cytometry analysis; assay type: functional
[5] = test system: Salmonella paratyphi; assay: Antibacterial activity against Salmonella paratyphi A MTCC 735 after 24 hrs; assay type: functional, Salmonella enterica subsp. enterica serovar Paratyphi A; details: Salmonella enterica, MTCC 735, 24 h
[6] = test system: Listeria monocytogenes; assay: Induction of cell damage in Listeria monocytogenes ATCC 19115 assessed as increase in fluorescence intensity at MIC after 12 hrs using propidium iodide staining by flow cytometry analysis; assay type: functional
[7] = test system: Staphylococcus aureus; assay: Induction of cell lysis in Staphylococcus aureus ATCC 6538 assessed as membrane disintegration and damage of cell wall at MIC by field emission scanning electron microscopy analysis; assay type: functional, organism-based
[8] = test system: Staphylococcus aureus; assay: Antibacterial activity against Staphylococcus aureus ATCC 6538 after 18 hrs by microdilution method; assay type: functional; details: ATCC 6538, 18 h
[9] = test system: Escherichia coli; assay: Antibacterial activity against Escherichia coli ATCC 25922 after 18 hrs by microdilution method; assay type: functional; details: ATCC 25922, 18 h
[10] = test system: Listeria monocytogenes; assay: Antibacterial activity against Listeria monocytogenes ATCC 19115 after 24 hrs; assay type: functional; details: ATCC 19115, 24 h
[11] = test system: Yersinia enterocolitica; assay: Induction of cell damage in Yersinia enterocolitica MTCC 859 assessed as increase in fluorescence intensity at MIC after 12 hrs using propidium iodide staining by flow cytometry analysis; assay type: functional
[12] = test system: Yersinia enterocolitica; assay: Induction of cell leakage in Yersinia enterocolitica MTCC 859 assessed as release of cellular materials at MIC after 8 to 16 hrs by UV/VIS spectrophotometer analysis; assay type: functional, organism-based
[13] = test system: Listeria monocytogenes; assay: Antibacterial activity against Listeria monocytogenes ATCC 19115 after 18 hrs by microdilution method; assay type: functional; details: ATCC 19115, 18 h
[14] = test system: Salmonella paratyphi; assay: Antibacterial activity against Salmonella paratyphi A MTCC 735 after 18 hrs by microdilution method; assay type: functional, Salmonella enterica subsp. enterica serovar Paratyphi A; details: Salmonella enterica, MTCC 735, 18 h
[15] = test system: Yersinia enterocolitica; assay: Antibacterial activity against Yersinia enterocolitica MTCC 859 after 24 hrs; assay type: functional; details: MTCC 859, 24 h
[16] = test system: Bacillus cereus; assay: Induction of cell damage in Bacillus cereus ATCC 11778 assessed as increase in fluorescence intensity at MIC after 12 hrs using propidium iodide staining by flow cytometry analysis; assay type: functional
[17] = test system: Escherichia coli; assay: Antibacterial activity against enterotoxic Escherichia coli MTCC 723 after 24 hrs; assay type: functional; details: MTCC 723, 24 h
[18] = test system: Escherichia coli; assay: Induction of cell damage in enterotoxic Escherichia coli MTCC 723 assessed as increase in fluorescence intensity at MIC after 12 hrs using propidium iodide staining by flow cytometry analysis; assay type: functional
[19] = test system: Staphylococcus aureus; assay: Antibacterial activity against Staphylococcus aureus ATCC 6538 after 24 hrs; assay type: functional; details: ATCC 6538, 24 h
[20] = test system: Yersinia enterocolitica; assay: Antibacterial activity against Yersinia enterocolitica MTCC 859 after 18 hrs by microdilution method; assay type: functional; details: MTCC 859, 18 h
[21] = test system: Escherichia coli; assay: Antibacterial activity against enterotoxic Escherichia coli MTCC 723 after 18 hrs by microdilution method; assay type: functional; details: MTCC 723, 18 h
[22] = test system: Bacillus cereus; assay: Antibacterial activity against Bacillus cereus ATCC 11778 after 24 hrs; assay type: functional; details: ATCC 11778, 24 h
[23] = test system: Staphylococcus aureus; assay: Induction of cell damage in Staphylococcus aureus ATCC 6538 assessed as increase in fluorescence intensity at MIC after 12 hrs using propidium iodide staining by flow cytometry analysis; assay type: functional
[24] = test system: Salmonella paratyphi; assay: Induction of cell damage in Salmonella paratyphi A MTCC 735 assessed as increase in fluorescence intensity at MIC after 12 hrs using propidium iodide staining by flow cytometry analysis; assay type: functional, Salmonella enterica subsp. enterica serovar Paratyphi A
[25] = test system: Escherichia coli; assay: Antibacterial activity against Escherichia coli ATCC 25922 after 24 hrs; assay type: functional; details: ATCC 25922, 24 h

Row | Compound | Activity [1] | Activity [2] | MIC [3] | RFU [4] | MBC [5] | RFU [6] | Activity [7] | MIC [8] | MIC [9] | MBC [10] | RFU [11] | Activity [12] | MIC [13] | MIC [14] | MBC [15] | RFU [16] | MBC [17] | RFU [18] | MBC [19] | MIC [20] | further results
1 | C=C1CC[C@H]2C(C)(C)CCC[C@]2(C)[C@H]1C/C=C(/C=O)CC=O | Active | Active | 12.5 µg/mL (≈ 41.3 µM) | 146 | 12.5 µg/mL (≈ 41.3 µM) | 70.9 | Active | 12.5 µg/mL (≈ 41.3 µM) | 25 µg/mL (≈ 82.7 µM) | 25 µg/mL (≈ 82.7 µM) | 80.7 | Active | 25 µg/mL (≈ 82.7 µM) | 12.5 µg/mL (≈ 41.3 µM) | 25 µg/mL (≈ 82.7 µM) | 117 | 25 µg/mL (≈ 82.7 µM) | 139 | 25 µg/mL (≈ 82.7 µM) | 12.5 µg/mL (≈ 41.3 µM) | MIC [21]: 25 µg/mL (≈ 82.7 µM); MBC [22]: 12.5 µg/mL (≈ 41.3 µM); RFU [23]: 114; RFU [24]: 78.5; MBC [25]: 50 µg/mL (≈ 165 µM)
2 | CC1(C)CCC[C@@]2(C)[C@H]1CC[C@@]1(CO1)[C@@H]2C/C=C(/C=O)CC=O [AFRAMODIAL] | Active | Active | 6.75 µg/mL (≈ 21.2 µM) | 187 | 12.5 µg/mL (≈ 39.3 µM) | 89.9 | Active | 3.38 µg/mL (≈ 10.6 µM) | 12.5 µg/mL (≈ 39.3 µM) | 12.5 µg/mL (≈ 39.3 µM) | 117 | Active | 12.5 µg/mL (≈ 39.3 µM) | 6.75 µg/mL (≈ 21.2 µM) | 3.38 µg/mL (≈ 10.6 µM) | 118 | 6.75 µg/mL (≈ 21.2 µM) | 153 | 6.75 µg/mL (≈ 21.2 µM) | 3.38 µg/mL (≈ 10.6 µM) | MIC [21]: 6.75 µg/mL (≈ 21.2 µM); MBC [22]: 6.75 µg/mL (≈ 21.2 µM); RFU [23]: 119; RFU [24]: 87.6; MBC [25]: 12.5 µg/mL (≈ 39.3 µM)
